# In ChEMBL document CHEMBL5223062, “Tumor pyruvate kinase M2 modulators: a comprehensive account of activators and inhibitors as anticancer agents” (RSC Med Chem, 2021):
# Legend:
# Pyruvate kinase PKM [1] = target: T1, Pyruvate kinase PKM (Homo sapiens, UniProt P14618); assay: Activation of PKM2 (unknown origin)
# Target sequence in this assay (P14618 whole entry): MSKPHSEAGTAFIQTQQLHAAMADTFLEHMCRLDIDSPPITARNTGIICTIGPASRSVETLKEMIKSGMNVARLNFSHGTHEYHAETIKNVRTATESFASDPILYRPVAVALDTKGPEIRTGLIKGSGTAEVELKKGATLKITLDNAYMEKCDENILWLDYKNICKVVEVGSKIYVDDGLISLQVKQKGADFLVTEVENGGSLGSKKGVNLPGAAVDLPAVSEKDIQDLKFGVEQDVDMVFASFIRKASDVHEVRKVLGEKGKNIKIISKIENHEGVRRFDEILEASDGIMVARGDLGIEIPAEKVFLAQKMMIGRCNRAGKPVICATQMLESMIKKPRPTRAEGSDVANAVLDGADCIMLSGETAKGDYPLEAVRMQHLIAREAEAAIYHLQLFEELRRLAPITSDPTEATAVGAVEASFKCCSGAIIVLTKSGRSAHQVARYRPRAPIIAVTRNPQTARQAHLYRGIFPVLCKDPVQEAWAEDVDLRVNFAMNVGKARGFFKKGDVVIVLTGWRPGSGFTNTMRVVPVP
# HeLa = assay: Antiproliferative activity against human HeLa cells assessed as cell growth inhibition; assay type: functional, cell-based
# HCT-116 = assay: Antiproliferative activity against human HCT-116 cells assessed as cell growth inhibition; assay type: functional, cell-based
# NCI-H1299 [2] = assay: Antiproliferative activity against human NCI-H1299 cells assessed as cell growth inhibition; assay type: functional, cell-based
# Pyruvate kinase PKM [3] = target: T1, Pyruvate kinase PKM; assay: Inhibition of PKM2 (unknown origin)
# Target sequence in this assay (P14618 whole entry): as above
# Pyruvate kinase PKM [4] = target: T1, Pyruvate kinase PKM; assay: Binding affinity to PKM2 (unknown origin) assessed as Gibbs free energy
# Target sequence in this assay (P14618 2-531 limits assumed): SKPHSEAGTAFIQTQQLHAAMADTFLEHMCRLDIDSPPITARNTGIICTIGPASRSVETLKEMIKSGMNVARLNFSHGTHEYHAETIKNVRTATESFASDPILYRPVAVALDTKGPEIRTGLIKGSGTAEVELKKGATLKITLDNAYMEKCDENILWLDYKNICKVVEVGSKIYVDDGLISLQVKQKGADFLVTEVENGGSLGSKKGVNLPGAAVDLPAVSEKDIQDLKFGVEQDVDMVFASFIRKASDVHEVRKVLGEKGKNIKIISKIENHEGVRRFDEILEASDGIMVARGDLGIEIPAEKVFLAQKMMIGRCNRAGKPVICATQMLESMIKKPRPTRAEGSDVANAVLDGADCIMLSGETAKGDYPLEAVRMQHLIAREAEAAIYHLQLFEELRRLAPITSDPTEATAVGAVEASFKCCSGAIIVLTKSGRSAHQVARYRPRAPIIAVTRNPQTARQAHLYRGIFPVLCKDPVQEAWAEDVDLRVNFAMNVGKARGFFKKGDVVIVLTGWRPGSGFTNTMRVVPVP
# HT-29 = assay: Antiproliferative activity against human HT-29 cells assessed as cell growth inhibition; assay type: functional, cell-based
# DLD-1 = assay: Antiproliferative activity against human DLD-1 cells assessed as cell growth inhibition; assay type: functional, cell-based
# Pyruvate kinase PKM [5] = target: T1, Pyruvate kinase PKM; assay: Inhibition of PKM1 (unknown origin) at 10 uM relative to control
# Target sequence in this assay (P14618 2-531 limits assumed): as above
# Pyruvate kinase PKM [6] = target: T1, Pyruvate kinase PKM; assay: Inhibition of PKM2 (unknown origin) at 10 uM relative to control
# Target sequence in this assay (P14618 2-531 limits assumed): as above
# NCI-H1299 [7] = assay: Inhibition of glycolysis in human NCI-H1299 cells; assay type: functional
# Pyruvate kinase PKM [8] = target: T1, Pyruvate kinase PKM; assay: Activation of PKM2 in human NCI-H1299 cells; assay type: cell-based
# Target sequence in this assay (P14618 whole entry): as the sequence (P14618 whole entry) above
# PC-3 = assay: Antiproliferative activity against human PC-3 cells assessed as cell growth inhibition; assay type: functional, cell-based
structure (smiles),measurement,setting,value
Cn1cc(C(=O)c2cccc(Cl)c2Cl)cc1C(=O)NCCNC(=O)c1cc(C(=O)c2cccc(Cl)c2Cl)cn1C,AC50,Pyruvate kinase PKM [1],10 nM
CC1=C(CSC(=S)N2CCCCC2)C(=O)c2ccccc2C1=O,IC50,HeLa,2950 nM
same,IC50,HCT-116,2950 nM
same,IC50,NCI-H1299 [2],2950 nM
CC(C)=CC[C@@H](O)C1=CC(=O)c2c(O)ccc(O)c2C1=O [SHIKONIN],IC50,Pyruvate kinase PKM [3],1420 nM
same,deltaG,Pyruvate kinase PKM [4],-7.98 kcal/mol
COc1cc(/C=C/C(=O)O)cc(OC)c1O [SINAPINATE],AC50,Pyruvate kinase PKM [1],26200 nM
O=c1c(O)c(-c2cc(O)c(O)c(O)c2)oc2cc(O)cc(O)c12 [MYRICETIN],AC50,Pyruvate kinase PKM [1],510 nM
C=C1C(=O)O[C@H]2C1CCC(C)=C1CC[C@@](C)(O)[C@@H]12 (stereo not given in full),AC50,Pyruvate kinase PKM [1],6 nM
O=c1cc(-c2ccc(O)cc2)oc2cc(O)cc(O)c12 [APIGENIN],IC50,HCT-116,27900 nM
same,IC50,HT-29,2000 nM
same,IC50,DLD-1,89500 nM
Cc1ccc(C)n1-c1ccc(O)c(C(=O)O)c1,inhibition,Pyruvate kinase PKM [5],34%
same,inhibition,Pyruvate kinase PKM [6],81%
same,inhibition (INH),NCI-H1299 [7],18.5%
O=C(O)/C=C/c1ccc(O)cc1 [COUMARIC ACID],AC50,Pyruvate kinase PKM [1],22200 nM
CC(C)=CCC1=C(O)C(=O)c2ccccc2C1=O [LAPACHOL],IC50,Pyruvate kinase PKM [3],1400 nM
same,deltaG,Pyruvate kinase PKM [4],-9.34 kcal/mol
Cc1cc2c(s1)c1cnn(Cc3ccccc3F)c(=O)c1n2C,AC50,Pyruvate kinase PKM [8],60 nM
COc1ccccc1N1CCN(C(=O)c2ccc(NS(=O)(=O)c3cccc4cccnc34)cc2)CC1,AC50,Pyruvate kinase PKM [1],10 nM
COc1cccc(Cn2ncc3c4sc([S+](C)[O-])cc4n(C)c3c2=O)c1 (stereo not given),AC50,Pyruvate kinase PKM [8],70 nM
O=S(=O)(Nc1ccc(C2(O)CSC(=S)N2Cc2ccccc2)cc1)c1ccc2c(c1)OCCO2 (stereo not given),IC50,HeLa,460 nM
same,IC50,HCT-116,460 nM
same,AC50,Pyruvate kinase PKM [1],3140 nM
same,IC50,PC-3,460 nM
O=P(O)(O)OC[C@H]1O[C@](O)(COP(=O)(O)O)[C@@H](O)[C@@H]1O [FOSFRUCTOSE],AC50,Pyruvate kinase PKM [1],7000 nM
COc1ccc(-c2cc(=O)c3c(OC)c(OC)c(OC)c(OC)c3o2)cc1 [TANGERETIN],AC50,Pyruvate kinase PKM [1],950 nM
O=C(c1cc(C(F)(F)F)n[nH]1)N(Cc1ccc(O)cc1F)CC1CCC1,AC50,Pyruvate kinase PKM [1],10 nM
O=C1CCc2cc(S(=O)(=O)Nc3ccc(F)c(Cl)c3)c(F)cc2N1,AC50,Pyruvate kinase PKM [1],90 nM
C=C1C(=O)O[C@@H]2[C@H]3O[C@]3(C)CC/C=C(/C(=O)OCCOCCOC(=O)/C3=C/CC[C@@]4(C)O[C@@H]4[C@H]4OC(=O)C(=C)[C@@H]4CC3)CC[C@@H]12,AC50,Pyruvate kinase PKM [1],15 nM
Nc1cccc(S(=O)(=O)N2CCCN(S(=O)(=O)c3ccc4c(c3)OCCO4)CC2)c1,AC50,Pyruvate kinase PKM [1],30 nM
CCCCCN1/C(=C\C=C\C2N(CCCC)c3cc(Cl)c(Cl)cc3N2CCCCC)N(CCCC)c2cc(Cl)c(Cl)cc21 (stereo not given),inhibition,Pyruvate kinase PKM [5],31%
same,inhibition,Pyruvate kinase PKM [6],86%
O=C(O)CN1C(=O)/C(=C/c2ccc(OC(=O)c3ccccc3I)cc2)SC1=S,inhibition,Pyruvate kinase PKM [5],36%
same,inhibition,Pyruvate kinase PKM [6],84%
